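Where inhibition never reached the appropriate level, the endpoint shown equals the highest concentration tested. Otherwise, values were interpolated linearly from a five-concentration, 48-hour dose response in 96-well plates. Definition used: TGI = concentration required for complete inhibition of growth.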
Assays:
Experiment in all cases: DTP human tumour cell line panel, 48 h
MDA-N = tested on: MDA-N
SF-295 CNS = tested on: SF-295 CNS
786-0 renal = tested on: 786-0 renal
KM12 colon = tested on: KM12 colon
OVCAR-3 ovarian = tested on: OVCAR-3 ovarian
HCC-2998 colon = tested on: HCC-2998 colon
SW-620 colon = tested on: SW-620 colon
DU-145 prostate = tested on: DU-145 prostate
PC-3 prostate = tested on: PC-3 prostate
SK-MEL-28 melanoma = tested on: SK-MEL-28 melanoma
SF-268 CNS = tested on: SF-268 CNS
K-562 leukemia = tested on: K-562 leukemia
A549 NSCLC = tested on: A549 NSCLC
M14 melanoma = tested on: M14 melanoma
SK-MEL-5 melanoma = tested on: SK-MEL-5 melanoma
SR leukemia = tested on: SR leukemia
MDA-MB-231 breast = tested on: MDA-MB-231 breast
U251 CNS = tested on: U251 CNS

`C[C@]12CC[C@H](O)CC1=CC[C@@H]1[C@@H]2CC[C@]2(C)C(=O)/C(=C/c3ccc([N+](=O)[O-])cc3)C[C@@H]12` showed a TGI (MDA-N) greater than 100 µM, a TGI (SF-295 CNS) of 20.6 µM and a TGI (786-0 renal) of 10.8 µM. The TGI (KM12 colon) was greater than 100 µM, the TGI (OVCAR-3 ovarian) was 33.8 µM and the TGI (HCC-2998 colon) was greater than 100 µM. For the same molecule, the TGI (SW-620 colon) was greater than 100 µM, the TGI (DU-145 prostate) was 44.9 µM and the TGI (PC-3 prostate) was 31 µM. For the same molecule, the TGI (SK-MEL-28 melanoma) was 74.7 µM, the TGI (SF-268 CNS) was 21.5 µM and the TGI (K-562 leukemia) was greater than 100 µM. It also gave a TGI (A549 NSCLC) of 29.8 µM, a TGI (M14 melanoma) greater than 100 µM and a TGI (SK-MEL-5 melanoma) of 43.5 µM. For the same molecule, the TGI (SR leukemia) was greater than 100 µM.

`NC1=Nc2ccccc2Sc2nc3ccccc3n21` was tested, and the TGI (MDA-N) was greater than 100 µM, the TGI (SF-295 CNS) was greater than 100 µM and the TGI (786-0 renal) was 5.23 µM. It also gave a TGI (KM12 colon) greater than 100 µM, a TGI (OVCAR-3 ovarian) greater than 100 µM and a TGI (SW-620 colon) greater than 100 µM. For the same molecule, the TGI (MDA-MB-231 breast) was greater than 100 µM, the TGI (DU-145 prostate) was greater than 100 µM and the TGI (PC-3 prostate) was greater than 100 µM. For the same molecule, the TGI (SF-268 CNS) was greater than 100 µM, the TGI (K-562 leukemia) was greater than 100 µM and the TGI (A549 NSCLC) was greater than 100 µM. For the same molecule, the TGI (U251 CNS) was greater than 100 µM, the TGI (M14 melanoma) was 82.4 µM and the TGI (SK-MEL-5 melanoma) was greater than 100 µM. For the same molecule, the TGI (SR leukemia) was greater than 100 µM.

`CCN(CC)c1ccc2cc(C(N)=O)c(=Nc3ccc(F)cc3)oc2c1` showed a TGI (MDA-N) greater than 100 µM, a TGI (SF-295 CNS) greater than 100 µM and a TGI (786-0 renal) greater than 100 µM. It also gave a TGI (KM12 colon) greater than 100 µM, a TGI (OVCAR-3 ovarian) greater than 100 µM and a TGI (HCC-2998 colon) greater than 100 µM. For the same molecule, the TGI (SW-620 colon) was greater than 100 µM, the TGI (MDA-MB-231 breast) was 88.5 µM and the TGI (PC-3 prostate) was greater than 100 µM. It also gave a TGI (SK-MEL-28 melanoma) greater than 100 µM, a TGI (SF-268 CNS) greater than 100 µM and a TGI (K-562 leukemia) greater than 100 µM. It also gave a TGI (A549 NSCLC) greater than 100 µM, a TGI (U251 CNS) greater than 100 µM and a TGI (M14 melanoma) greater than 100 µM. The TGI (SK-MEL-5 melanoma) was greater than 100 µM and the TGI (SR leukemia) was greater than 100 µM.

`O=c1c2cc(I)ccc2nc(SCc2nnco2)n1Cc1ccccc1` was tested, and the TGI (MDA-N) was greater than 100 µM, the TGI (SF-295 CNS) was greater than 100 µM and the TGI (786-0 renal) was greater than 100 µM. The TGI (KM12 colon) was greater than 100 µM, the TGI (OVCAR-3 ovarian) was greater than 100 µM and the TGI (HCC-2998 colon) was greater than 100 µM. The TGI (SW-620 colon) was greater than 100 µM, the TGI (MDA-MB-231 breast) was greater than 100 µM and the TGI (DU-145 prostate) was greater than 100 µM. The TGI (PC-3 prostate) was greater than 100 µM, the TGI (SK-MEL-28 melanoma) was greater than 100 µM and the TGI (SF-268 CNS) was greater than 100 µM. The TGI (A549 NSCLC) was greater than 100 µM, the TGI (U251 CNS) was greater than 100 µM and the TGI (M14 melanoma) was greater than 100 µM. For the same molecule, the TGI (SK-MEL-5 melanoma) was greater than 100 µM and the TGI (SR leukemia) was greater than 100 µM.

For `COc1ccc(C2=NNC(c3cc4cc(Br)ccc4nc3Cl)C2)cc1` (centres undefined), the TGI (MDA-N) was 17.8 µM, the TGI (786-0 renal) was greater than 25 µM and the TGI (KM12 colon) was greater than 25 µM. The TGI (OVCAR-3 ovarian) was greater than 25 µM, the TGI (HCC-2998 colon) was greater than 25 µM and the TGI (SW-620 colon) was greater than 25 µM. For the same molecule, the TGI (DU-145 prostate) was greater than 25 µM, the TGI (PC-3 prostate) was greater than 25 µM and the TGI (SK-MEL-28 melanoma) was greater than 25 µM. The TGI (K-562 leukemia) was greater than 25 µM, the TGI (M14 melanoma) was greater than 25 µM and the TGI (SR leukemia) was greater than 25 µM.

`Cc1c2cccc-2c(OCCOC(=O)n2ccnc2)cc2c1[nH]c1ccccc12` was tested, and the TGI (MDA-N) was 17.5 µM, the TGI (SF-295 CNS) was 10.9 µM and the TGI (786-0 renal) was 19.9 µM. It also gave a TGI (KM12 colon) of 4.65 µM, a TGI (OVCAR-3 ovarian) of 4.64 µM and a TGI (HCC-2998 colon) of 12.1 µM. It also gave a TGI (SW-620 colon) of 14.4 µM, a TGI (DU-145 prostate) of 22 µM and a TGI (PC-3 prostate) of 3.48 µM. For the same molecule, the TGI (SK-MEL-28 melanoma) was 4.63 µM, the TGI (SF-268 CNS) was 5.8 µM and the TGI (K-562 leukemia) was 21.7 µM. It also gave a TGI (A549 NSCLC) of 11 µM, a TGI (M14 melanoma) of 10.5 µM and a TGI (SK-MEL-5 melanoma) of 5.68 µM. It also gave a TGI (SR leukemia) greater than 100 µM.

`CC(=O)c1[nH]c(Nc2ccc(C)cc2)c(C(=S)Nc2ccccc2)c1N` was tested, and the TGI (MDA-N) was 37.2 µM, the TGI (SF-295 CNS) was 39.7 µM and the TGI (786-0 renal) was 34.3 µM. The TGI (KM12 colon) was 34.8 µM, the TGI (OVCAR-3 ovarian) was 35.5 µM and the TGI (HCC-2998 colon) was 56.5 µM. For the same molecule, the TGI (SW-620 colon) was 96.9 µM, the TGI (MDA-MB-231 breast) was 35.7 µM and the TGI (DU-145 prostate) was 34.2 µM. It also gave a TGI (SK-MEL-28 melanoma) of 45.3 µM, a TGI (SF-268 CNS) of 30.2 µM and a TGI (K-562 leukemia) of 72.2 µM. It also gave a TGI (A549 NSCLC) of 30.7 µM, a TGI (U251 CNS) of 29.9 µM and a TGI (M14 melanoma) of 36.4 µM. For the same molecule, the TGI (SK-MEL-5 melanoma) was 31 µM and the TGI (SR leukemia) was greater than 100 µM.

With `CN(C)CC1CCCc2ccccc2C1=O` (centres undefined) the TGI (MDA-N) was 3.07 µM, the TGI (SF-295 CNS) was 32.5 µM and the TGI (786-0 renal) was 2.8 µM. For the same molecule, the TGI (KM12 colon) was 4.69 µM, the TGI (OVCAR-3 ovarian) was 3.57 µM and the TGI (HCC-2998 colon) was 12 µM. It also gave a TGI (MDA-MB-231 breast) of 9.7 µM, a TGI (DU-145 prostate) of 10.7 µM and a TGI (PC-3 prostate) of 3 µM. The TGI (SK-MEL-28 melanoma) was 13 µM, the TGI (SF-268 CNS) was 5.55 µM and the TGI (A549 NSCLC) was 39.5 µM. It also gave a TGI (U251 CNS) of 3.12 µM, a TGI (M14 melanoma) of 3.42 µM and a TGI (SK-MEL-5 melanoma) of 15.9 µM. The TGI (SR leukemia) was greater than 100 µM.

With `COc1cc(S(=O)(=O)Nc2ccc(-c3csc(N4C(=O)C(C)SC4c4ccccc4)n3)cc2)ccc1Cl` (centres undefined) the TGI (MDA-N) was greater than 100 µM, the TGI (786-0 renal) was greater than 100 µM and the TGI (KM12 colon) was greater than 100 µM. For the same molecule, the TGI (OVCAR-3 ovarian) was greater than 100 µM, the TGI (SW-620 colon) was greater than 100 µM and the TGI (DU-145 prostate) was greater than 100 µM. For the same molecule, the TGI (PC-3 prostate) was greater than 100 µM, the TGI (SK-MEL-28 melanoma) was greater than 100 µM and the TGI (SF-268 CNS) was greater than 100 µM. For the same molecule, the TGI (K-562 leukemia) was greater than 100 µM, the TGI (A549 NSCLC) was greater than 100 µM and the TGI (M14 melanoma) was greater than 100 µM. For the same molecule, the TGI (SK-MEL-5 melanoma) was greater than 100 µM and the TGI (SR leukemia) was greater than 100 µM.

`O=C(/C=C/c1ccccc1)Oc1cccc(Br)c1` was tested, and the TGI (MDA-N) was greater than 100 µM, the TGI (SF-295 CNS) was 68.3 µM and the TGI (786-0 renal) was greater than 100 µM. The TGI (KM12 colon) was greater than 100 µM, the TGI (OVCAR-3 ovarian) was greater than 100 µM and the TGI (HCC-2998 colon) was greater than 100 µM. It also gave a TGI (SW-620 colon) greater than 100 µM, a TGI (MDA-MB-231 breast) greater than 100 µM and a TGI (DU-145 prostate) greater than 100 µM. The TGI (PC-3 prostate) was greater than 100 µM, the TGI (SK-MEL-28 melanoma) was greater than 100 µM and the TGI (SF-268 CNS) was greater than 100 µM. The TGI (A549 NSCLC) was greater than 100 µM, the TGI (U251 CNS) was greater than 100 µM and the TGI (M14 melanoma) was greater than 100 µM. For the same molecule, the TGI (SK-MEL-5 melanoma) was greater than 100 µM and the TGI (SR leukemia) was 59.3 µM.

With `O=S1(=O)OCCCOS(=O)(=O)C1(Br)Br` the TGI (MDA-N) was greater than 100 µM, the TGI (SF-295 CNS) was greater than 100 µM and the TGI (786-0 renal) was greater than 100 µM. It also gave a TGI (KM12 colon) greater than 100 µM, a TGI (OVCAR-3 ovarian) greater than 100 µM and a TGI (SW-620 colon) greater than 100 µM. The TGI (DU-145 prostate) was greater than 100 µM, the TGI (PC-3 prostate) was greater than 100 µM and the TGI (SK-MEL-28 melanoma) was greater than 100 µM. It also gave a TGI (SF-268 CNS) greater than 100 µM, a TGI (A549 NSCLC) greater than 100 µM and a TGI (U251 CNS) greater than 100 µM. The TGI (M14 melanoma) was greater than 100 µM, the TGI (SK-MEL-5 melanoma) was greater than 100 µM and the TGI (SR leukemia) was greater than 100 µM.

For `C1=CN2C[n+]3ccc4ccccc4c3N=C2c2ccccc21`, the TGI (MDA-N) was 7.59 µM, the TGI (SF-295 CNS) was 24 µM and the TGI (786-0 renal) was 10.3 µM. The TGI (KM12 colon) was 10.7 µM, the TGI (OVCAR-3 ovarian) was 3.51 µM and the TGI (SW-620 colon) was 34.2 µM. It also gave a TGI (MDA-MB-231 breast) of 23.6 µM, a TGI (DU-145 prostate) of 25.2 µM and a TGI (PC-3 prostate) of 31.1 µM. It also gave a TGI (SF-268 CNS) of 8.35 µM, a TGI (K-562 leukemia) of 12.5 µM and a TGI (A549 NSCLC) of 21.6 µM. For the same molecule, the TGI (U251 CNS) was 10.2 µM, the TGI (M14 melanoma) was 11.7 µM and the TGI (SK-MEL-5 melanoma) was 1.5 µM. For the same molecule, the TGI (SR leukemia) was 4.66 µM.

Source: PubChem BioAssay (NCI)
